System: p53 signaling pathway in MT373 tumors
Assay: MT373 syngeneic sarcoma model: mouse p53 signaling pathway profiling panel
Type: in vivo
Details: MT373 tumors

CCn1c(C#CCNc2ccccc2)cc2cc(CNC3CCN(C)CC3)ccc21 [Compound 1, 1-Anilino-3-{1-ethyl-5-[(1-methyl-4-piperidylamino)methyl]-1H-indol-2-yl}-2-propyne]
Wt1 mRNA, Fold Increase Over Vehicle Control or Percent Reduction Compared to Vehicle Control (%) (75 mg/kg BIDx1, 72 h): 23.33 fold or %
Zmat3 mRNA, Fold Increase Over Vehicle Control or Percent Reduction Compared to Vehicle Control (%) (75 mg/kg BIDx1, 72 h): 1.10 fold or %
Actb* mRNA (housekeeping or reference gene), Fold Increase Over Vehicle Control or Percent Reduction Compared to Vehicle Control (%) (150 mg/kg BIDx1, 8 h): 1.00 fold or %
B2m* mRNA (housekeeping or reference gene), Fold Increase Over Vehicle Control or Percent Reduction Compared to Vehicle Control (%) (150 mg/kg BIDx1, 8 h): 1.05 fold or %
Gapdh* mRNA (housekeeping or reference gene), Fold Increase Over Vehicle Control or Percent Reduction Compared to Vehicle Control (%) (150 mg/kg BIDx1, 8 h): 1.02 fold or %
Gusb* mRNA (housekeeping or reference gene), Fold Increase Over Vehicle Control or Percent Reduction Compared to Vehicle Control (%) (150 mg/kg BIDx1, 8 h): 1.02 fold or %
Hsp90ab1* mRNA (housekeeping or reference gene), Fold Increase Over Vehicle Control or Percent Reduction Compared to Vehicle Control (%) (150 mg/kg BIDx1, 8 h): 9.13 fold or %
MGDC* (housekeeping or reference gene), Fold Increase Over Vehicle Control or Percent Reduction Compared to Vehicle Control (%) (150 mg/kg BIDx1, 8 h): 1.00 fold or %
Trp63 mRNA, Fold Increase Over Vehicle Control or Percent Reduction Compared to Vehicle Control (%) (150 mg/kg BIDx1, 8 h): 1.02 fold or %
Trp73 mRNA, Fold Increase Over Vehicle Control or Percent Reduction Compared to Vehicle Control (%) (150 mg/kg BIDx1, 8 h): 1.00 fold or %
Wt1 mRNA, Fold Increase Over Vehicle Control or Percent Reduction Compared to Vehicle Control (%) (150 mg/kg BIDx1, 8 h): 30.29 fold or %
Zmat3 mRNA, Fold Increase Over Vehicle Control or Percent Reduction Compared to Vehicle Control (%) (150 mg/kg BIDx1, 8 h): 6.69 fold or %
Actb* mRNA (housekeeping or reference gene), Fold Increase Over Vehicle Control or Percent Reduction Compared to Vehicle Control (%) (150 mg/kg BIDx1, 24 h): 1.11 fold or %
B2m* mRNA (housekeeping or reference gene), Fold Increase Over Vehicle Control or Percent Reduction Compared to Vehicle Control (%) (150 mg/kg BIDx1, 24 h): 1.11 fold or %
Gapdh* mRNA (housekeeping or reference gene), Fold Increase Over Vehicle Control or Percent Reduction Compared to Vehicle Control (%) (150 mg/kg BIDx1, 24 h): 14.16 fold or %
Gusb* mRNA (housekeeping or reference gene), Fold Increase Over Vehicle Control or Percent Reduction Compared to Vehicle Control (%) (150 mg/kg BIDx1, 24 h): 1.25 fold or %
Hsp90ab1* mRNA (housekeeping or reference gene), Fold Increase Over Vehicle Control or Percent Reduction Compared to Vehicle Control (%) (150 mg/kg BIDx1, 24 h): 24.42 fold or %
MGDC* (housekeeping or reference gene), Fold Increase Over Vehicle Control or Percent Reduction Compared to Vehicle Control (%) (150 mg/kg BIDx1, 24 h): 1.00 fold or %
Trp63 mRNA, Fold Increase Over Vehicle Control or Percent Reduction Compared to Vehicle Control (%) (150 mg/kg BIDx1, 24 h): 1.00 fold or %
Trp73 mRNA, Fold Increase Over Vehicle Control or Percent Reduction Compared to Vehicle Control (%) (150 mg/kg BIDx1, 24 h): 1.00 fold or %
Wt1 mRNA, Fold Increase Over Vehicle Control or Percent Reduction Compared to Vehicle Control (%) (150 mg/kg BIDx1, 24 h): 21.51 fold or %
Zmat3 mRNA, Fold Increase Over Vehicle Control or Percent Reduction Compared to Vehicle Control (%) (150 mg/kg BIDx1, 24 h): 6.17 fold
Actb* mRNA (housekeeping or reference gene), Fold Increase Over Vehicle Control or Percent Reduction Compared to Vehicle Control (%) (150 mg/kg BIDx1, 48 h): 1.04 fold or %
B2m* mRNA (housekeeping or reference gene), Fold Increase Over Vehicle Control or Percent Reduction Compared to Vehicle Control (%) (150 mg/kg BIDx1, 48 h): 1.20 fold or %
Gapdh* mRNA (housekeeping or reference gene), Fold Increase Over Vehicle Control or Percent Reduction Compared to Vehicle Control (%) (150 mg/kg BIDx1, 48 h): 27.30 fold or %
Gusb* mRNA (housekeeping or reference gene), Fold Increase Over Vehicle Control or Percent Reduction Compared to Vehicle Control (%) (150 mg/kg BIDx1, 48 h): 1.39 fold or %
Hsp90ab1* mRNA (housekeeping or reference gene), Fold Increase Over Vehicle Control or Percent Reduction Compared to Vehicle Control (%) (150 mg/kg BIDx1, 48 h): 19.96 fold or %
MGDC* (housekeeping or reference gene), Fold Increase Over Vehicle Control or Percent Reduction Compared to Vehicle Control (%) (150 mg/kg BIDx1, 48 h): 1.00 fold or %
Trp63 mRNA, Fold Increase Over Vehicle Control or Percent Reduction Compared to Vehicle Control (%) (150 mg/kg BIDx1, 48 h): 1.00 fold or %
Trp73 mRNA, Fold Increase Over Vehicle Control or Percent Reduction Compared to Vehicle Control (%) (150 mg/kg BIDx1, 48 h): 1.00 fold or %
Wt1 mRNA, Fold Increase Over Vehicle Control or Percent Reduction Compared to Vehicle Control (%) (150 mg/kg BIDx1, 48 h): 21.51 fold or %
Zmat3 mRNA, Fold Increase Over Vehicle Control or Percent Reduction Compared to Vehicle Control (%) (150 mg/kg BIDx1, 48 h): 1.36 fold or %
Actb* mRNA (housekeeping or reference gene), Fold Increase Over Vehicle Control or Percent Reduction Compared to Vehicle Control (%) (150 mg/kg BIDx1, 72 h): 1.04 fold or %
B2m* mRNA (housekeeping or reference gene), Fold Increase Over Vehicle Control or Percent Reduction Compared to Vehicle Control (%) (150 mg/kg BIDx1, 72 h): 1.18 fold or %
Gapdh* mRNA (housekeeping or reference gene), Fold Increase Over Vehicle Control or Percent Reduction Compared to Vehicle Control (%) (150 mg/kg BIDx1, 72 h): 19.69 fold or %
Gusb* mRNA (housekeeping or reference gene), Fold Increase Over Vehicle Control or Percent Reduction Compared to Vehicle Control (%) (150 mg/kg BIDx1, 72 h): 1.27 fold or %
Hsp90ab1* mRNA (housekeeping or reference gene), Fold Increase Over Vehicle Control or Percent Reduction Compared to Vehicle Control (%) (150 mg/kg BIDx1, 72 h): 1.00 fold or %
MGDC* (housekeeping or reference gene), Fold Increase Over Vehicle Control or Percent Reduction Compared to Vehicle Control (%) (150 mg/kg BIDx1, 72 h): 1.53 fold or %
Trp63 mRNA, Fold Increase Over Vehicle Control or Percent Reduction Compared to Vehicle Control (%) (150 mg/kg BIDx1, 72 h): 1.67 fold or %
Trp73 mRNA, Fold Increase Over Vehicle Control or Percent Reduction Compared to Vehicle Control (%) (150 mg/kg BIDx1, 72 h): 1.00 fold or %
Wt1 mRNA, Fold Increase Over Vehicle Control or Percent Reduction Compared to Vehicle Control (%) (150 mg/kg BIDx1, 72 h): 21.51 fold or %
Zmat3 mRNA, Fold Increase Over Vehicle Control or Percent Reduction Compared to Vehicle Control (%) (150 mg/kg BIDx1, 72 h): 1.21 fold or %

From patent US20230049952A1, “METHODS AND COMPOUNDS FOR RESTORING MUTANT P53 FUNCTION” (PMV Pharmaceuticals, Inc., priority 2020, published 2023)
